Test results published in ChEMBL document CHEMBL3046310, “Synthesis and antimicrobial screening of novel series of imidazo-[1,2-a]pyridine derivatives” (2012).
Values after ≈ are worked out from the molar mass of the structure shown.

How the values were obtained:
Format in all cases: functional
Candida albicans = test: Antimicrobial activity against Candida albicans MTCC 227 after 72 hr by serial broth dilution method; conditions: MTCC 227, 72 h
Staphylococcus aureus = test: Antimicrobial activity against Staphylococcus aureus MTCC 96 after 24 hr by serial broth dilution method; conditions: MTCC 96, 24 h
Aspergillus clavatus = test: Antimicrobial activity against Aspergillus clavatus MTCC 1323 after 72 hr by serial broth dilution method; conditions: MTCC 1323, 72 h
Aspergillus niger = test: Antimicrobial activity against Aspergillus niger MTCC 282 after 72 hr by serial broth dilution method; conditions: MTCC 282, 72 h
Pseudomonas aeruginosa = test: Antimicrobial activity against Pseudomonas aeruginosa MTCC 1688 after 24 hr by serial broth dilution method; conditions: MTCC 1688, 24 h
Escherichia coli = test: Antimicrobial activity against Escherichia coli MTCC 443 after 24 hr by serial broth dilution method; conditions: MTCC 443, 24 h
Streptococcus pyogenes = test: Antimicrobial activity against Streptococcus pyogenes MTCC 442 after 24 hr by serial broth dilution method; conditions: MTCC 442, 24 h

SMILES | MIC (Candida albicans) [µg/mL] | MIC (Staphylococcus aureus) [µg/mL] | MIC (Aspergillus clavatus) [µg/mL] | MIC (Aspergillus niger) [µg/mL] | MIC (Pseudomonas aeruginosa) [µg/mL] | MIC (Escherichia coli) [µg/mL] | MIC (Streptococcus pyogenes) [µg/mL]
Cc1ccn2c(CN(C)C)c(-c3ccccc3O)nc2c1 | 1000 (≈ 3550 µM) | 500 (≈ 1780 µM) | 1000 (≈ 3550 µM) | 1000 (≈ 3550 µM) | 500 (≈ 1780 µM) | 500 (≈ 1780 µM) | 500 (≈ 1780 µM)
COC1=CC(=O)C[C@@H](C)[C@]12Oc1c(Cl)c(OC)cc(OC)c1C2=O [GRISEOFULVIN] | 500 (≈ 1420 µM) | – | 100 (≈ 283 µM) | 100 (≈ 283 µM) | – | – | –
Cc1ccn2c(CN(C)C)c(-c3ccccc3Br)nc2c1 | 500 (≈ 1450 µM) | 500 (≈ 1450 µM) | 100 (≈ 290 µM) | 50 (≈ 145 µM) | 100 (≈ 290 µM) | 100 (≈ 290 µM) | 250 (≈ 726 µM)
Cc1ccn2c(CN(C)C)c(-c3ccc(F)cc3F)nc2c1 | 500 (≈ 1660 µM) | 50 (≈ 166 µM) | 100 (≈ 332 µM) | 50 (≈ 166 µM) | 50 (≈ 166 µM) | 100 (≈ 332 µM) | 250 (≈ 830 µM)
Cc1ccn2c(CN(C)C)c(-c3ccc(O)cc3O)nc2c1 | 1000 (≈ 3360 µM) | 500 (≈ 1680 µM) | 1000 (≈ 3360 µM) | 1000 (≈ 3360 µM) | 500 (≈ 1680 µM) | 500 (≈ 1680 µM) | 250 (≈ 841 µM)
CC1(C)S[C@@H]2[C@H](NC(=O)[C@H](N)c3ccccc3)C(=O)N2[C@H]1C(=O)O [AMPICILLIN] | – | 250 (≈ 715 µM) | – | – | 100 (≈ 286 µM) | 100 (≈ 286 µM) | 100 (≈ 286 µM)
Cc1ccn2c(CN(C)C)c(-c3c(F)cccc3F)nc2c1 | 1000 (≈ 3320 µM) | 250 (≈ 830 µM) | 500 (≈ 1660 µM) | 100 (≈ 332 µM) | 25 (≈ 83 µM) | 25 (≈ 83 µM) | 100 (≈ 332 µM)
Cc1ccn2c(CN(C)C)c(-c3ccc(F)c(Cl)c3)nc2c1 | 250 (≈ 787 µM) | 50 (≈ 157 µM) | 1000 (≈ 3150 µM) | 1000 (≈ 3150 µM) | 100 (≈ 315 µM) | 50 (≈ 157 µM) | 50 (≈ 157 µM)
Cc1ccn2c(CN(C)C)c(-c3cccc(Br)c3F)nc2c1 | 1000 (≈ 2760 µM) | 250 (≈ 690 µM) | 25 (≈ 69 µM) | 100 (≈ 276 µM) | 500 (≈ 1380 µM) | 500 (≈ 1380 µM) | 25 (≈ 69 µM)
Cc1ccn2c(CN(C)C)c(-c3cccc(Cl)c3)nc2c1 | 250 (≈ 834 µM) | 100 (≈ 334 µM) | 100 (≈ 334 µM) | 100 (≈ 334 µM) | 50 (≈ 167 µM) | 100 (≈ 334 µM) | 500 (≈ 1670 µM)
Cc1ccn2c(CN(C)C)c(-c3ccc(O)c([N+](=O)[O-])c3)nc2c1 | 1000 (≈ 3060 µM) | 500 (≈ 1530 µM) | 1000 (≈ 3060 µM) | 1000 (≈ 3060 µM) | 250 (≈ 766 µM) | 500 (≈ 1530 µM) | 1000 (≈ 3060 µM)
Cc1ccn2c(CN(C)C)c(-c3cc([N+](=O)[O-])c(O)cc3O)nc2c1 | 500 (≈ 1460 µM) | 500 (≈ 1460 µM) | 500 (≈ 1460 µM) | 500 (≈ 1460 µM) | 250 (≈ 730 µM) | 500 (≈ 1460 µM) | 250 (≈ 730 µM)
Cc1ccn2c(CN(C)C)c(-c3ccc([N+](=O)[O-])cc3Br)nc2c1 | 1000 (≈ 2570 µM) | 500 (≈ 1280 µM) | 500 (≈ 1280 µM) | 500 (≈ 1280 µM) | 100 (≈ 257 µM) | 100 (≈ 257 µM) | 100 (≈ 257 µM)
Cc1ccn2c(CN(C)C)c(-c3cccc(F)c3F)nc2c1 | 125 (≈ 415 µM) | 500 (≈ 1660 µM) | 250 (≈ 830 µM) | 250 (≈ 830 µM) | 250 (≈ 830 µM) | 50 (≈ 166 µM) | 500 (≈ 1660 µM)
